# Columns and labels:
# TNF-α = TNF-α expression level (qPCR) after introduction of GFP-tagged CAR-T plasmid; format: cell-based, human; conditions: Jurkat E6.1; JSH-23 0.1 μM; compared to CAR-T plasmid introduced without JSH-23
# Method: Human leukemia T cells (Jurkat E6.1) were seeded in a 6-well plate to be about 10,000 cells/cm^2. As a culture solution, RPMI1640 medium comprising 10% bovine serum was used. To this, 0.1 μM of JSH-23 was added, or for comparison, 0.1% (v/v) DMSO instead of JSH-23 was added and used.
# A lipofection solution was prepared by adding Lipofectamine 2000 and GFP-tagged CAR-T plasmid to OptiMEM. The amount of plasmid was prepared to be 1 pg/cell. The prepared lipofection solution was mixed well according to the manufacturer's recommended protocol and allowed to stand at room temperature for about 15 minutes.
# Next, the lipofection solution was added to the plate seeded with human leukemia T cells, and cultured in a CO2 incubator at 37° C. for about 1 day (18 hours). After culturing, all the culture solution comprising the lipofection solution was removed and replaced with a new culture solution having the same composition as before the addition of the lipofection solution. […]
# cDNA was synthesized from the purified RNA using SuperScript™ III Reverse Transcriptase according to the manufacturer's protocol. qPCR was performed using the synthesized cDNA and PCR primers as well as PowerTrack™ SYBR Green Master Mix. The measured Ct value of TNF-α was normalized with the Ct value of β-actin, a housekeeping gene.
# human myoblasts = test: Introduction of GFP viral vector (polybrene method), yield of GFP-positive cells; format: cell-based; conditions: JSH-23 0.1 μM; GFP viral vector MOI 10, polybrene 5 μg/mL
# Method: Human mesenchymal stem cells were seeded in a 6-well plate to be about 2,000 cells/cm^2. Human myoblasts were seeded in another 6-well plate to be about 2,000 cells/cm^2. As a culture solution, a basal medium for each cell supplemented with JSH-23 was used. JSH-23 was added at 1 μM to the culture solution used for human mesenchymal stem cells, and at 0.1 μM to the culture solution used for human myoblasts. As a control, a basal medium, i.e., αMEM (+10% serum) for human mesenchymal stem cells and MCDB131 (+10% serum) for human myoblasts, to which 0.1% (v/v) DMSO instead of JSH-23 was added was used as a culture solution.
# A mixed solution was prepared by mixing GFP viral vector and a polybrene solution. […]
# Next, the above mixed solution was added to the plate seeded with human mesenchymal stem cells or human myoblasts, and cultured in a CO2 incubator at 37° C. for 24 hours.
# Four days after the addition of the virus-free culture solution, the cells were detached with a cell detachment solution and centrifuged at 600×g for 5 minutes using a centrifuge, to collect the cells. The collected cells were counted using a hemocytometer. Furthermore, the GFP-positive percentage of the collected cells was measured using a flow cytometer. The yield of the number of GFP-positive cells was calculated from the number of cells counted and the GFP-positive percentage. […]
# [1] = system: human mesenchymal stem cells; test: Introduction of GFP mRNA with NFκB inhibitors other than nuclear translocation inhibitors (Example 12), yield of GFP-positive cells; format: cell-based; conditions: JSH-23 1 μM; GFP mRNA 10 pg/cell
# Method: Improvement in the yield of transgenic cells when using an NFκB inhibitor other than the NFκB nuclear translocation inhibitor of the present invention was investigated. As the NFκB inhibitors, BAY11 (IKK inhibitor), dexamethasone (IκB degradation inhibitor), and 6-amino-4-(4-phenoxyphenethylamino)quinazoline (p65 acetylation inhibitor) were used to perform introduction of genes. For comparison, introduction of gene was performed under the same conditions using JSH-23, an NFκB nuclear translocation inhibitor, instead of the above-mentioned NFκB inhibitors. The specific procedure is as follows.
# Human mesenchymal stem cells were seeded in a 6-well plate to be about 10,000 cells/cm^2. […]
# Twenty-four hours after the final introduction of genes, the cells were detached with a cell detachment solution, centrifuged at 600×g for 5 minutes using a centrifuge, to collect the cells. The collected cells were counted using a hemocytometer. Furthermore, the GFP-positive percentage of the collected cells was measured using a flow cytometer. The yield of the number of GFP-positive cells was calculated from the number of cells counted and the GFP-positive percentage.
structure (smiles),measurement,setting,value
Cc1ccc(NCCCc2ccccc2)c(N)c1 [JSH-23],increase in the expression level of TNF-α,TNF-α,reduced
same,number of GFP-positive cells relative to control,human myoblasts,increased
same,number of GFP-positive (transgenic) cells relative to control (set to 1),[1],≥ 7 times

# Source: patent US20250327032A1, “AGENT FOR AVOIDING IMMUNE RESPONSE OF TRANSGENIC CELLS” (HYPERION DRUG DISCOVERY CO., LTD., priority 2021, published 2025)
